In PMC9219824, “Antiplasmodial Cyclodecapeptides from Tyrothricin Share a Target with Chloroquine” (Antibiotics, 2022):
Where two headings read alike, the source gives them in different places. Square brackets hold non-standard residues; d marks the D form. Peptide text beside a SMILES is read from it. Orn = NCCC[C@H](N)C(=O)O

What was measured:
human erythrocytes = assay: Hemolytic activity; assay type: cell-based; settings: 2% hematocrit, 1 h at 37 °C, ± SEM
Method: To determine the hemolytic activity of the peptides, the duplicate 96-well plates with samples added to 90 μL 2% hematocrit per well were incubated for one hour at 37 °C and centrifuged using a swing-out rotor at 200× g for 3 min. The supernatant was diluted 1:8 in analytical quality water in separate 96-well plates and after mixing, the absorbance of the suspension was determined at 405 nm.
The data obtained from spectrophotometric measurement of the plates following the lactate dehydrogenase (Malstat) assay were converted to percentage growth inhibition using the data analysis method described by Rautenbach et al.. The background was obtained from control wells in which the parasites were killed with 100 µM GS while total growth was from the wells that were not submitted to peptides. The background for the hemolysis evaluation was from wells in which the uninfected erythrocytes were lysed using 100 µM GS while growth control was from the wells with uninfected erythrocytes that received no peptides. The percentage COS-1 cell death (CellTiter Blue™ assay) was similarly calculated from absorbance values. All the dose–response assay data were evaluated using GraphPad Prism 4.03 (GraphPad Software, San Diego, CA, USA) followed by non-linear regression and sigmoidal curves were fitted (having variable slope and a constant difference of 100 between the top and bottom plateau). Following calculation of the 50% P. falciparum inhibitory concentration (IC50), 50% hemolytic concentration (HC50) and 50% lethal concentration (LC50) for COS-1 cells.

P. falciparum D10 [1] = assay: Super-resolution structured illumination fluorescence microscopy (SR-SIM) of parasite morphology; assay type: cell-based, Plasmodium falciparum
Method: Prior to staining for fluorescence microscopy, the cultures were centrifuged at 300× g for 4 min, then the supernatant was discarded and cells were suspended to the same percentage hematocrit in a solution made of one part analytical quality water and three parts sterile PBS (pH 7.2–7.3) in order to reduce solute concentration.
The fluorescence microscopy involved staining suspended cultures (TpcC treated and untreated) prepared as described above (except for not being synchronized within the last 48 h of culturing) with combinations of trypan blue (red fluorescence) and either SYTO® 9 green-fluorescent nucleic acid stain or LipidTOX™ neutral lipid stain (green fluorescence). To view the neutral lipids, the cells were stained with LipidTOX™ (stock solution dilution at 1:200), incubated for 30 min at room temperature before staining with trypan blue at final concentration of 0.002% v/v. For nucleic acid staining, the cells were stained with SYTO® 9 (stock solution dilution at 1:1000) and trypan blue at final concentration of 0.002% v/v and incubated at room temperature for 15 min. Super-resolution structured illumination (SR-SIM) fluorescence microscopy was carried out as follows: thin ([…]) z-stacks of high-resolution image frames were accumulated in 5 rotations using an alpha Plan-Apochromat 100×/1.46 oil DIC M27 ELYRA objective, employing an ELYRA S.1 (Carl Zeiss Microimaging) microscope equipped with a 488 nm laser (100 mW), 561 nm laser (100 mW) and Andor EM-CCD camera (iXon DU 885). Images were […] using ZEN software (black edition, 2011, version 7.04.287) based on a structured illumination algorithm. Image projections and animations were carried out on reconstructed super-resolution images in ZEN.

P. falciparum D10 [2] = assay: Parasite stage distribution, Giemsa staining and light microscopy; assay type: cell-based, Plasmodium falciparum; settings: 200 nM, synchronized trophozoite stage cultures, 0 to 48 h
Method: For light microscopy, following addition of TpcC, aliquots were collected from the cultures at different time-points for preparation of Giemsa-stained blood smears. The assay was carried out in duplicate and lactate dehydrogenase activity of the residual cultures was determined after 48 h.

CQI P. falciparum D10 = settings: for nature of CQ-peptide interaction: at the lowest CQ ratio, D10
Method: In order to determine the nature of Trc-CQ interaction, IC50 values were derived from dose–response curves of fixed ratios of Trc and CQ for fractional inhibition concentration (FIC) determination according to an adaptation of the methods by Chawira and Warhust and Fivelman et al..
CQ at […] (2.0 µM) and 500.0 μM peptide were used to prepare doubling and quadrupling dilution ranges, respectively in supplemented RPMI-1640 culture medium used for culturing the P. falciparum, but lacking albumax II. These were then mixed in an chequerboard fashion to determine the 1:0; 0:1 1;1, 1:2; 1:5 and 1:10 ratios of CQ:peptide for combined IC50s. The CQ, peptide or drug:peptide combination (10 μL) was added to 90 μL of the cell suspensions, incubated for 48 h at 37 °C under an atmosphere of 3% CO2, 4% O2 and 93% N2 and analyzed for growth inhibition as previously described using the Malstat assay. The IC50 values and standard error of the mean for the various CQ-peptide combinations were determined from the dose–response curves plotted and analyzed using GraphPad Prism® 4.03 (GraphPad Software, San Diego, CA, USA). A minimum of three technical repeats and three biological repeats were carried out for each combination experiment.
Two fractional inhibition concentration (FIC) values were calculated for each of the five CQ-peptide combination ratios, one for CQ and the other for the peptide according to Equations (1) and (2) below from Bell:FICCQ = IC50([CQ] in combination)/IC50CQ ([CQ] alone)(1) FICPeptide = IC50 ([Peptide] in combination)/IC50Peptide ([Peptide] alone)(2)
The FIC values were used to compute the FIC index which is the sum of FICs of CQ and each peptide using Equation (3) below:FIC index = FICCQ + FICpeptide(3)
The magnitude of the FICI determined the nature of the CQ-peptide interaction as being either synergistic (FICI < 1.0), antagonistic (FICI > 1.0) or additive (FICI = 1.0) 64–66. […] The shape of the isobolograms also provided an indication of the nature of the interactive effect of CQ and the peptides with a concave curve for synergy, a linear line for an additive to non-interactive effect or convex curve for antagonism with deviation of the curves from the additivity line indicating the strength of the interactive effect.

[3] = CQ:peptide ratio 1:2 at IC50, D10
[4] = CQ:peptide ratio 1:5 at IC50, D10
[5] = CQ:peptide ratio 1:10 at IC50, D10
[6] = CQ:peptide ratio 1:1 at IC50, D10

**Q.** Which “HC50, Erythrocytes” value (human erythrocytes) does the source give for `CC(C)C[C@@H]1NC(=O)[C@H](CCCN)NC(=O)[C@H](C(C)C)NC(=O)[C@H](Cc2c[nH]c3ccccc23)NC(=O)[C@H](CCC(N)=O)NC(=O)[C@H](CC(N)=O)NC(=O)[C@@H](Cc2c[nH]c3ccccc23)NC(=O)[C@H](Cc2c[nH]c3ccccc23)NC(=O)[C@@H]2CCCN2C(=O)[C@@H](Cc2ccccc2)NC1=O` [TpcC, tryptocidine C] (cyclo(L[dF]PW[dW]NQWV[Orn])) here?
**A.** 9.1 ± 1.5 (4) μM

**Q.** And the “permeabilization or lysis of parasite and erythrocyte membranes (trypan blue leakage)” value (P. falciparum D10 [1]; lethal concentration of 200 nM)?
**A.** none of the parasite membranes or erythrocyte membrane was permeabilized or lysed

**Q.** And the “chromatin morphology (SYTO9 nuclear staining)” value (P. falciparum D10 [1]; post 6 h treatment)?
**A.** abnormality in the packing or compactness of the chromatin

**Q.** And the “neutral lipid structures (LipidTOX stain)” value (P. falciparum D10 [1]; trophozoite stage cultures, after 5 h in culture)?
**A.** the lipid structures were distorted and diffused

**Q.** What about the “effect on parasite stage progression” value (P. falciparum D10 [2]) of the same compound?
**A.** delay in the occurrence of the schizont stage

**Q.** And the “CQ FIC” value (CQI P. falciparum D10; [3])?
**A.** 0.36 ± 0.07

**Q.** And the “CQ:Peptide FIC Index” value (CQI P. falciparum D10; [3])?
**A.** 1.26 ± 0.36

**Q.** What about the “Peptide FIC” value (CQI P. falciparum D10; [3]) of the same compound?
**A.** 0.90 ± 0.40

**Q.** What about the “CQ FIC” value (CQI P. falciparum D10; [4]) of the same compound?
**A.** 0.23 ± 0.08

**Q.** And the “CQ:Peptide FIC Index” value (CQI P. falciparum D10; [4])?
**A.** 1.47 ± 0.28

**Q.** What about the “Peptide FIC” value (CQI P. falciparum D10; [4]) of the same compound?
**A.** 1.24 ± 0.26

**Q.** What about the “CQ FIC” value (CQI P. falciparum D10; [5]) of the same compound?
**A.** 0.08 ± 0.03

**Q.** And the “CQ:Peptide FIC Index” value (CQI P. falciparum D10; [5])?
**A.** 1.02 ± 0.17

**Q.** And the “Peptide FIC” value (CQI P. falciparum D10; [5])?
**A.** 0.93 ± 0.16

**Q.** And the “nature of CQ-peptide interaction” value (CQI P. falciparum D10)?
**A.** additive activity

**Q.** For `CC(C)C[C@@H]1NC(=O)[C@H](CCCN)NC(=O)[C@H](C(C)C)NC(=O)[C@H](Cc2ccc(O)cc2)NC(=O)[C@H](CCC(N)=O)NC(=O)[C@H](CC(N)=O)NC(=O)[C@@H](Cc2ccccc2)NC(=O)[C@H](Cc2ccccc2)NC(=O)[C@@H]2CCCN2C(=O)[C@@H](Cc2ccccc2)NC1=O` [TrcA, tyrocidine A] (cyclo(V[Orn]L[dF]PF[dF]NQY)), which “CQ FIC” value (CQI P. falciparum D10; [6]) is on record?
**A.** 1.77 ± 0.29

**Q.** What about the “CQ:Peptide FIC Index” value (CQI P. falciparum D10; [6]) of the same compound?
**A.** > 3

**Q.** And the “Peptide FIC” value (CQI P. falciparum D10; [6])?
**A.** 1.99 ± 0.36

**Q.** What about the “CQ:Peptide FIC Index” value (CQI P. falciparum D10; CQ:peptide ratio 1:1 at IC50, D10, listed as Tyrocidine A) of the same compound?
**A.** 3.76 ± 0.65

**Q.** What about the “CQ FIC” value (CQI P. falciparum D10; [3]) of the same compound?
**A.** 0.66 ± 0.02

**Q.** And the “CQ:Peptide FIC Index” value (CQI P. falciparum D10; [3])?
**A.** 1.60 ± 0.20

**Q.** What about the “Peptide FIC” value (CQI P. falciparum D10; [3]) of the same compound?
**A.** 0.95 ± 0.18

**Q.** What about the “CQ FIC” value (CQI P. falciparum D10; [5]) of the same compound?
**A.** 0.13 ± 0.10

**Q.** And the “CQ:Peptide FIC Index” value (CQI P. falciparum D10; [5])?
**A.** 1.35 ± 0.37

**Q.** And the “Peptide FIC” value (CQI P. falciparum D10; [5])?
**A.** 1.21 ± 0.29

**Q.** For `CC(C)C[C@@H]1NC(=O)[C@H](CCCN)NC(=O)[C@H](C(C)C)NC(=O)[C@H](Cc2ccccc2)NC(=O)[C@H](CCC(N)=O)NC(=O)[C@H](CC(N)=O)NC(=O)[C@@H](Cc2ccccc2)NC(=O)[C@H](Cc2ccccc2)NC(=O)[C@@H]2CCCN2C(=O)[C@@H](Cc2ccccc2)NC1=O` [PhcA, phenycidine A] (cyclo(FV[Orn]L[dF]PF[dF]NQ)), which “HC50, Erythrocytes” value (human erythrocytes) is on record?
**A.** 7.1 ± 1.6 (8) μM

**Q.** And the “nature of CQ-peptide interaction” value (CQI P. falciparum D10)?
**A.** synergistic action
